Measured values as given in patent US20230127326A1, “C3-SUBSTITUTED 1H-PYRAZOLO[4,3-d]PYRIMIDINE COMPOUNDS AS TOLL-LIKE RECEPTOR 7 (TLR7) AGONISTS” (BRISTOL-MYERS SQUIBB COMPANY, priority 2020, published 2023).

How the values were obtained:
human TLR7 = target: T1, human TLR7 (Homo sapiens, UniProt Q9NYK1); assay: Human TLR7 agonist activity reporter assay (HEK-Blue TLR7 cells, SEAP reporter); type: cell-based; settings: 18 h treatment, average where assay was performed multiple times, read-out: hTLR7 Agonism EC50
T1 construct: host or cells: HEK-Blue TLR7 cells (engineered human embryonic kidney cells)
T1 sequence (Q9NYK1 27-1049): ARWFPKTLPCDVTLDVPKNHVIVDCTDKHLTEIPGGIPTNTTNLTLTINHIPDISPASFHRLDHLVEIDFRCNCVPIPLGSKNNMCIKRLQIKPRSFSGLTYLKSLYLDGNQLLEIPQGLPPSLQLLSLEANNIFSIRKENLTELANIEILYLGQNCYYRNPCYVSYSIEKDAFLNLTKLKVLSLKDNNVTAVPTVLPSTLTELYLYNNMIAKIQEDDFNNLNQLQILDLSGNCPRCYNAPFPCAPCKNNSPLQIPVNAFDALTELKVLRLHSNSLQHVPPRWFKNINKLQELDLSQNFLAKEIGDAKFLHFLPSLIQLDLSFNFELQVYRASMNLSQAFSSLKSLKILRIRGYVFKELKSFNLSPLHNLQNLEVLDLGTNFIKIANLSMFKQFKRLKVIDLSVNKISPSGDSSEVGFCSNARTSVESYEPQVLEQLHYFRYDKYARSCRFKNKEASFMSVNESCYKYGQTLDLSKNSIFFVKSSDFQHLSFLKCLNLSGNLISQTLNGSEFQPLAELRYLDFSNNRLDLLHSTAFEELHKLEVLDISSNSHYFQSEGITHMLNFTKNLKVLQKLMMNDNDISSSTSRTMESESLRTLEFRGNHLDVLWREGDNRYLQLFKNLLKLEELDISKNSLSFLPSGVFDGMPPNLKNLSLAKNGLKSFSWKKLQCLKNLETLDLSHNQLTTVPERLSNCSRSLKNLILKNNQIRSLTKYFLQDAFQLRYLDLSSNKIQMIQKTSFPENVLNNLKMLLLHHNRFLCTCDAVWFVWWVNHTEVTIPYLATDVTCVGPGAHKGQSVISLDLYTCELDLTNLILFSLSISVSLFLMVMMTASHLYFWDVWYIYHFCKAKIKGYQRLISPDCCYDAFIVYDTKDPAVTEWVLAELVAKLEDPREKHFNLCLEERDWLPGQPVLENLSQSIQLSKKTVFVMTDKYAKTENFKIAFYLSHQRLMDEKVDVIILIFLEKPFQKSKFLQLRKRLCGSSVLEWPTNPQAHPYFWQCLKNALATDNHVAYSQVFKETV
Description: This procedure describes a method for assaying human TLR7 (hTLR7) agonist activity of the compounds disclosed in this specification.
HEK-Blue™ TLR7 cells were added to each well of a 384-well tissue-culture plate (15,000 cells per well) and incubated 16-18 h at 37° C., 5% CO2. Compounds (100 nl) were dispensed into wells containing the HEK-Blue™ TLR cells and the treated cells were incubated at 37° C., 5% CO2. After 18 h treatment ten microliters of freshly-prepared Quanti-Blue™ reagent (Invivogen) was added to each well, incubated for 30 min (37° C., 5% CO2) and SEAP levels measured using an Envision plate reader (OD=620 nm). The half maximal effective concentration values (EC50; compound concentration which induced a response halfway between the assay baseline and maximum) were calculated.

CD69 = assay: Induction of CD69 in human whole blood; type: cell-based; settings: 17 hrs at 37° C., y-axis 100% set to 1 uM of resiquimod, average where assay was performed multiple times, read-out: hWB CD69 EC50
Description: The induction of Type I interferon (IFN) MX-1 genes and the B-cell activation marker CD69 are downstream events that occur upon activation of the TLR7 pathway. The following is a human whole blood assay that measures their induction in response to a TLR7 agonist.
Heparinized human whole blood was harvested from human subjects and treated with test TLR7 agonist compounds at 1 mM. The blood was diluted with RPMI 1640 media and Echo was used to predot 10 nL per well giving a final concentration of 1 uM (10 nL in 10 uL of blood). After mixing on a shaker for 30 sec, the plates were covered and placed in a 37° C. chamber for o/n=17 hrs. Fixing/lysis buffer was prepared (5×->1× in H2O, warm at 37° C.; Cat #BD 558049) and kept the perm buffer (on ice) for later use.
For surface markers staining (CD69): prepared surface Abs: 0.045 ul hCD14-FITC (ThermoFisher Cat #MHCD1401)+0.6 ul hCD19-ef450 (ThermoFisher Cat #48-0198-42)+1.5 ul hCD69-PE (cat #BD555531)+0.855 ul FACS buffer. Added 3 ul/well, spin 1000 rpm for 1 min and mixed on shaker for 30 sec, put on ice for 30 mins. Stop stimulation after 30 minutes with 70 uL of prewarmed 1× fix/lysis buffer and use Feliex mate to resuspend (15 times, change tips for each plate) and incubate at 37 C for 10 minutes.
Centrifuge at 2000 rpm for 5 minutes aspirate with HCS plate washer, mix on shaker for 30 sec and then wash with 70 uL in dPBS and pelleted 2×s (2000 rpm for 5 min) and 50 ul wash in FACS buffer pelleted 1×s (2000 rpm for 5 min). Mix on shaker for 30 sec. For Intracellular markers staining (MX-1): Add 50 ul of BD Perm buffer III and mix on shaker for 30 sec. Incubate on ice for 30 minutes (in the dark). Wash with 50 uL of FACS buffer 2× (spin @2300 rpm×5 min after perm) followed by mixing on shaker for 30 sec. Resuspended in 20 ul of FACS buffer containing MX1 antibody ( )(4812)-Alexa 647: Novus Biologicals #NBP2-43704AF647) 20 ul FACS bf+0.8 ul hIgG+0.04 ul MX-1. Spin 1000 rpm for 1 min, mix on shaker for 30 se and the samples were incubated at RT in the dark for 45 minutes followed by washing 2×FACS buffer (spin @2300 rpm×5 min after perm). Resuspend 20 ul (35 uL total per well) of FACS buffer and cover with foil and place in 4° C. to read the following day. Plates were read on iQuePlus. The results were loaded into toolset and […] curves are generated in curve master. The y-axis 100% is set to 1 uM of resiquimod.

| Compound | EC50 (human TLR7) [nM] | EC50 (CD69) [nM] |
| --- | --- | --- |
| CCCCNc1nc(N)nc2c(OC)nn(Cc3ccc(CNC4CCOCC4)cc3OC)c12 [Compound 115, N7-butyl-3-methoxy-1-[(2-methoxy-4-{[(oxan-4-yl)amino]methyl}phenyl)-methyl]-1H-pyrazolo[4,3-d]pyrimidine-5,7-diamine] | 40.1 | 8.1 |
| CCCCNc1nc(N)nc2c(-c3cc[nH]n3)nn(Cc3ccc(CNC4CCOCC4)cc3OC)c12 [Compound 116, N7-butyl-1-[(2-methoxy-4-{[(oxan-4-yl)amino]methyl}-phenyl)methyl]-3-(1H-pyrazol-3-yl)-1H-pyrazolo[4,3-d]pyrimidine-5,7-diamine] | 1430 | 709 |
| CCCCNc1nc(N)nc2c(CO)nn(Cc3ccc(CNC4CCOCC4)cc3OC)c12 [Compound 118, [5-amino-7-(butylamino)-1-[(2-methoxy-4-{[(oxan-4-yl)amino]methyl}phenyl)-methyl]-1H-pyrazolo[4,3-d]pyrimidin-3-yl]methanol] | 594 | 252 |
| CCCCNc1nc(N)nc2c(CO)nn(Cc3ccc(CN4CCN(CCO)CC4)cc3OC)c12 [Compound 119, 2-{4-[(4-{[5-amino-7-(butyl-amino)-3-(hydroxymethyl)-1H-pyrazolo[4,3-d]pyrimidin-l-yl]methyl}-3-methoxy-phenyl)methyl]piperazin-1-yl}ethan-1-ol] | 433 | 177 |
| CCCCNc1nc(N)nc2c(CO)nn(Cc3ccc(CN4CC(OC)C4)cc3OC)c12 [Compound 120, [5-amino-7-(butylamino)-1-({2-methoxy-4-[(3-methoxy-azetidin-1-yl)methyl]phenyl}-methyl)-1H-pyrazolo[4,3-d]pyrimidin-3-yl]methanol] | 334 | 199 |
| CCCCNc1nc(N)nc2c(C3=CCOC3)nn(Cc3ccc(CNC4CCOCC4)cc3OC)c12 [Compound 121, N7-butyl-3-(2,5-dihydro-furan-3-yl)-1-[(2-methoxy-4-{[(oxan-4-yl)amino]methyl}-phenyl)methyl]-1H-pyrazolo[4,3-d]pyrimidine-5,7-diamine] | 1560 | 640 |
| CCCCNc1nc(N)nc2c(CC)nn(Cc3ccc(CNC4CCOCC4)cc3OC)c12 [Compound 122, N7-butyl-3-ethyl-1-[(2-methoxy-4-{[(oxan-4-yl)amino]methyl}phenyl)-methyl]-1H-pyrazolo[4,3-d]pyrimidine-5,7-diamine] | 203 | 88.7 |
| CCCCNc1nc(N)nc2c(C(C)C)nn(Cc3ccc(CNC4CCOCC4)cc3OC)c12 [Compound 123, N7-butyl-1-[(2-methoxy-4-{[(oxan-4-yl)amino]methyl}-phenyl)methyl]-3-(propan-2-yl)-1H-pyrazolo[4,3-d]pyrimidine-5,7-diamine] | 1040 | 418 |
| CCCCNc1nc(N)nc2c(C3CCOC3)nn(Cc3ccc(CNC4CCOCC4)cc3OC)c12 (stereo not shown) [Compound 124, N7-butyl-1-[(2-methoxy-4-{[(oxan-4-yl)amino]methyl}-phenyl)methyl]-3-(oxolan-3-yl)-1H-pyrazolo[4,3-d]pyrimidine-5,7-diamine] | 798 | 339 |
| CCC[C@@H](CO)Nc1nc(N)nc2c(C)nn(Cc3ccc(CN4CCN(CCO)CC4)cc3OC)c12 [Compound 125, (2S)-2-({5-amino-1-[(4-{[4-(2-hydroxyethyl)piperazin-1-yl]methyl}-2-methoxy-phenyl)methyl]-3-methyl-1H-pyrazolo[4,3-d]pyrimidin-7-yl}amino)pentan-1-ol] | 236 | 237 |
| CCC[C@@H](CCO)Nc1nc(N)nc2c(C)nn(Cc3ccc(CO)cc3OC)c12 [Compound 126, (3S)-3-[(5-amino-1-{[4-(hydroxymethyl)-2-methoxyphenyl]methyl}-3-methyl-1H-pyrazolo[4,3-d]pyrimidin-7-yl)amino]hexan-1-ol] | 63.4 | 90.2 |
| CCC[C@@H](CCO)Nc1nc(N)nc2c(C)nn(Cc3ccc(CNC4CCOCC4)cc3OC)c12 [Compound 127, (3S)-3-({5-amino-1-[(2-methoxy-4-{[(oxan-4-yl)amino]methyl}phenyl)-methyl]-3-methyl-1H-pyrazolo[4,3-d]pyrimidin-7-yl}amino)hexan-1-ol] | 21.8 | 2.7 |
| CCC[C@@H](CCO)Nc1nc(N)nc2c(C)nn(Cc3ccc(CN4CCN(CCO)CC4)cc3OC)c12 [Compound 128, (3S)-3-({5-amino-1-[(4-{[4-(2-hydroxyethyl)piperazin-1-yl]methyl}-2-methoxy-phenyl)methyl]-3-methyl-1H-pyrazolo[4,3-d]pyrimidin-7-yl}amino)hexan-1-ol] | 7.2 | 1.2 |
| CCC[C@@H](CCO)Nc1nc(N)nc2c(C)nn(Cc3ccc(CN4CCN(C)CC4)cc3OC)c12 [Compound 129, (3S)-3-{[5-amino-1-({2-methoxy-4-[(4-methyl-piperazin-1-yl)methyl]-phenyl}methyl)-3-methyl-1H-pyrazolo[4,3-d]pyrimidin-7-yl]amino}hexan-1-ol] | 5.93 | 3.5 |
| CCC[C@@H](CCO)Nc1nc(N)nc2c(C)nn(Cc3ccc(CN[C@@H]4CCCOC4)cc3OC)c12 [Compound 130, (3S)-3-[(5-amino-1-{[2-methoxy-4-({[(3R)-oxan-3-yl]amino}methyl)phenyl]-methyl}-3-methyl-1H-pyrazolo[4,3-d]pyrimidin-7-yl)amino]hexan-1-ol] | 93.8 | 7.5 |
| CCCCNc1nc(N)nc2c(C)nn(Cc3ncc(CN4CCN(CCO)CC4)cc3OC)c12 [Compound 131, 2-{4-[(6-{[5-amino-7-(butyl-amino)-3-methyl-1H-pyrazolo[4,3-d]pyrimidin-1-yl]methyl}-5-methoxy-pyridin-3-yl)methyl]piperazin-1-yl}ethan-1-ol] | 224 | 41.4 |
| CCC[C@@H](CCO)Nc1nc(N)nc2c(F)nn(Cc3ccc(CN[C@@H]4COC[C@H]4O)cc3OC)c12 [Compound 132, (3S,4R)-4-[({4-[(5-amino-3-fluoro-7-{[(3S)-1-hydroxy-hexan-3-yl]amino}-1H-pyrazolo[4,3-d]pyrimidin-1-yl)-methyl]-3-methoxyphenyl}-methyl)amino]oxolan-3-ol] | 40.4 | 9.3 |
